Source: PubChem BioAssay AID1963826 (Molecular Pharmacology Branch, DTP, NCI, 2024)

Tested on: 926638-142-R-J1-PDC complex spheroid viability
Assay: Anticancer human tumor 926638-142-R-J1-PDC patient-derived endometrial carcinoma cell line growth inhibition [POLQ]
Conditions: for IC50: curve of first compound; for viability, T/C: stronger effect = lower value; active = viability on the fitted dose curve at most 10% of control; inactive = the rest
How it was run: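 Complex spheroid viability model combining PDC tumour cells with endothelial (HUVEC) and MSC stromal cells. Novobiocin, ART-558 or RP6685 were tested singly and in combination with standard and investigational anticancer drugs. Each was titrated in half-log steps from near clinical Cmax, or from 10 microM where Cmax was unknown.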

[1] = second compound 0.0316 µM, first compound 0.0316 µM
[2] = second compound 0.0316 µM, first compound 0.1 µM
[3] = second compound 0.1 µM, first compound 0.0316 µM
[4] = second compound 0.1 µM, first compound 0.1 µM
[5] = second compound 0.316 µM, first compound 0.0316 µM
[6] = second compound 0.316 µM, first compound 0.1 µM
[7] = second compound 1 µM, first compound 0.0316 µM
[8] = second compound 1 µM, first compound 0.1 µM
[9] = second compound 3.16 µM, first compound 0.0316 µM
[10] = second compound 3.16 µM, first compound 0.1 µM
[11] = second compound 10 µM, first compound 0.0316 µM
[12] = second compound 10 µM, first compound 0.1 µM
[13] = second compound 0.0316 µM, first compound 0.316 µM
[14] = second compound 0.0316 µM, first compound 1 µM
[15] = second compound 0.0316 µM, first compound 3.16 µM
[16] = second compound 0.0316 µM, first compound 10 µM
[17] = second compound 0.1 µM, first compound 0.316 µM
[18] = second compound 0.1 µM, first compound 1 µM
[19] = second compound 0.1 µM, first compound 3.16 µM
[20] = second compound 0.1 µM, first compound 10 µM
[21] = second compound 0.316 µM, first compound 0.316 µM
[22] = second compound 0.316 µM, first compound 1 µM
[23] = second compound 0.316 µM, first compound 3.16 µM
[24] = second compound 0.316 µM, first compound 10 µM
[25] = second compound 1 µM, first compound 0.316 µM
[26] = second compound 1 µM, first compound 1 µM
[27] = second compound 1 µM, first compound 3.16 µM
[28] = second compound 1 µM, first compound 10 µM
[29] = second compound 3.16 µM, first compound 0.316 µM
[30] = second compound 3.16 µM, first compound 1 µM
[31] = second compound 3.16 µM, first compound 3.16 µM
[32] = second compound 3.16 µM, first compound 10 µM
[33] = second compound 10 µM, first compound 0.316 µM
[34] = second compound 10 µM, first compound 1 µM
[35] = second compound 10 µM, first compound 3.16 µM
[36] = second compound 10 µM, first compound 10 µM
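Also: spheroids exposed to drugs for one week before readout.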
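For viability, T/C in this document: percent viability relative to DMSO vehicle control wells set as 100%.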

CC[C@@]1(O)C(=O)OCc2c1cc1n(c2=O)Cc2cc3c(CN(C)C)c(O)ccc3nc2-1 + Nc1ccc(C#CCN(C(=O)Cc2ncc(C(F)(F)F)cc2C(F)(F)F)c2ccc(F)cc2)nn1
> 100 nM: IC50 (second compound 0.0316 µM) | IC50 (second compound 0.1 µM) | IC50 (second compound 0.316 µM)
95.5 nM: IC50 (second compound 3.16 µM)
inactive: viability, T/C (second compound 0.0316 µM, first compound 0.000316 µM) 105% | viability, T/C (second compound 0.0316 µM, first compound 0.001 µM) 96.1% | viability, T/C (second compound 0.0316 µM, first compound 0.00316 µM) 84% | viability, T/C (second compound 0.0316 µM, first compound 0.01 µM) 73.4% | viability, T/C [1] 71.5% | viability, T/C [2] 46.6% | viability, T/C (second compound 0.1 µM, first compound 0.000316 µM) 112% | viability, T/C (second compound 0.1 µM, first compound 0.001 µM) 90% | viability, T/C (second compound 0.1 µM, first compound 0.00316 µM) 81.6% | viability, T/C (second compound 0.1 µM, first compound 0.01 µM) 81.7% | viability, T/C [3] 69.2% | viability, T/C [4] 48.3% | viability, T/C (second compound 0.316 µM, first compound 0.000316 µM) 96.8% | viability, T/C (second compound 0.316 µM, first compound 0.001 µM) 109% | viability, T/C (second compound 0.316 µM, first compound 0.00316 µM) 86.2% | viability, T/C (second compound 0.316 µM, first compound 0.01 µM) 66.6% | viability, T/C [5] 64.1% | viability, T/C [6] 56.3% | viability, T/C (second compound 1 µM, first compound 0.000316 µM) 100% | viability, T/C (second compound 1 µM, first compound 0.001 µM) 101% | viability, T/C (second compound 1 µM, first compound 0.00316 µM) 89.6% | viability, T/C (second compound 1 µM, first compound 0.01 µM) 88.5% | viability, T/C [7] 71.2% | viability, T/C [8] 49.4% | viability, T/C (second compound 3.16 µM, first compound 0.000316 µM) 92.4% | viability, T/C (second compound 3.16 µM, first compound 0.001 µM) 92% | viability, T/C (second compound 3.16 µM, first compound 0.00316 µM) 89.7% | viability, T/C (second compound 3.16 µM, first compound 0.01 µM) 78.6% | viability, T/C [9] 74.6% | viability, T/C [10] 48.1% | viability, T/C (second compound 10 µM, first compound 0.000316 µM) 91.2% | viability, T/C (second compound 10 µM, first compound 0.001 µM) 88.5% | viability, T/C (second compound 10 µM, first compound 0.00316 µM) 80.2% | viability, T/C (second compound 10 µM, first compound 0.01 µM) 79.6% | viability, T/C [11] 65% | viability, T/C [12] 43.9%
73.1 nM: IC50 (second compound 10 µM)
97.6 nM: IC50 (second compound 1 µM)

COc1cc(C2c3cc4c(cc3C(OC3OC5COC(C)OC5C(O)C3O)C3COC(=O)C23)OCO4)cc(OC)c1O (stereo not drawn) + Nc1ccc(C#CCN(C(=O)Cc2ncc(C(F)(F)F)cc2C(F)(F)F)c2ccc(F)cc2)nn1
> 10000 nM: IC50 (second compound 0.0316 µM) | IC50 (second compound 0.1 µM) | IC50 (second compound 0.316 µM) | IC50 (second compound 1 µM) | IC50 (second compound 3.16 µM) | IC50 (second compound 10 µM)
inactive: viability, T/C [1] 99.2% | viability, T/C [2] 81.6% | viability, T/C [13] 80.3% | viability, T/C [14] 73.1% | viability, T/C [15] 77.8% | viability, T/C [16] 58.1% | viability, T/C [3] 96.6% | viability, T/C [4] 101% | viability, T/C [17] 70.3% | viability, T/C [18] 67.4% | viability, T/C [19] 80% | viability, T/C [20] 53.5% | viability, T/C [5] 106% | viability, T/C [6] 77.7% | viability, T/C [21] 71.7% | viability, T/C [22] 69.4% | viability, T/C [23] 69.7% | viability, T/C [24] 54% | viability, T/C [7] 102% | viability, T/C [8] 83.1% | viability, T/C [25] 80.4% | viability, T/C [26] 74.4% | viability, T/C [27] 69.3% | viability, T/C [28] 57% | viability, T/C [9] 83.3% | viability, T/C [10] 87.2% | viability, T/C [29] 71.2% | viability, T/C [30] 63.3% | viability, T/C [31] 76.1% | viability, T/C [32] 51% | viability, T/C [11] 94.9% | viability, T/C [12] 82.6% | viability, T/C [33] 73.3% | viability, T/C [34] 63% | viability, T/C [35] 69% | viability, T/C [36] 53.4%

Nc1ccn(C2OC(CO)C(O)C2(F)F)c(=O)n1 (stereo not drawn) + Nc1ccc(C#CCN(C(=O)Cc2ncc(C(F)(F)F)cc2C(F)(F)F)c2ccc(F)cc2)nn1
1060 nM: IC50 (second compound 0.0316 µM)
701 nM: IC50 (second compound 1 µM)
2400 nM: IC50 (second compound 10 µM)
948 nM: IC50 (second compound 0.316 µM)
682 nM: IC50 (second compound 0.1 µM)
inactive: viability, T/C [1] 76.5% | viability, T/C [2] 63.9% | viability, T/C [13] 57% | viability, T/C [14] 52.7% | viability, T/C [15] 43.9% | viability, T/C [16] 29.6% | viability, T/C [3] 96.8% | viability, T/C [4] 82.5% | viability, T/C [17] 49.4% | viability, T/C [18] 44.6% | viability, T/C [19] 49.9% | viability, T/C [20] 25.6% | viability, T/C [5] 91.2% | viability, T/C [6] 72% | viability, T/C [21] 61.8% | viability, T/C [22] 49.2% | viability, T/C [23] 40.8% | viability, T/C [24] 27% | viability, T/C [7] 81.8% | viability, T/C [8] 65.7% | viability, T/C [25] 51.1% | viability, T/C [26] 47.5% | viability, T/C [27] 49.6% | viability, T/C [28] 28.9% | viability, T/C [9] 80% | viability, T/C [10] 67.5% | viability, T/C [29] 49.9% | viability, T/C [30] 42.9% | viability, T/C [31] 44.6% | viability, T/C [32] 33.3% | viability, T/C [11] 79.6% | viability, T/C [12] 73.1% | viability, T/C [33] 66.3% | viability, T/C [34] 48% | viability, T/C [35] 55.4% | viability, T/C [36] 38.9%
449 nM: IC50 (second compound 3.16 µM)

O=c1[nH]cc(F)c(=O)[nH]1 + Nc1ccc(C#CCN(C(=O)Cc2ncc(C(F)(F)F)cc2C(F)(F)F)c2ccc(F)cc2)nn1
inactive: viability, T/C [1] 101% | viability, T/C [2] 107% | viability, T/C [13] 92.8% | viability, T/C [14] 82.9% | viability, T/C [15] 86.5% | viability, T/C [16] 80.7% | viability, T/C [3] 100% | viability, T/C [4] 116% | viability, T/C [17] 107% | viability, T/C [18] 83.4% | viability, T/C [19] 90.8% | viability, T/C [20] 78.8% | viability, T/C [5] 85.5% | viability, T/C [6] 98.1% | viability, T/C [21] 102% | viability, T/C [22] 97.8% | viability, T/C [23] 85.5% | viability, T/C [24] 83% | viability, T/C [7] 103% | viability, T/C [8] 85% | viability, T/C [25] 99.4% | viability, T/C [26] 75.9% | viability, T/C [27] 77.7% | viability, T/C [28] 76.8% | viability, T/C [9] 97.7% | viability, T/C [10] 93.5% | viability, T/C [29] 88.1% | viability, T/C [30] 92.5% | viability, T/C [31] 82.1% | viability, T/C [32] 70.2% | viability, T/C [11] 102% | viability, T/C [12] 81% | viability, T/C [33] 93.2% | viability, T/C [34] 85.7% | viability, T/C [35] 78.2% | viability, T/C [36] 74.3%
> 10000 nM: IC50 (second compound 0.0316 µM) | IC50 (second compound 0.1 µM) | IC50 (second compound 0.316 µM) | IC50 (second compound 1 µM) | IC50 (second compound 3.16 µM) | IC50 (second compound 10 µM)
